These results are taken from article doi:10.1101/2024.06.10.598391v1 (bioRxiv, 2024).

Data set [1] is described as follows: Micelle morphology by negative-stain TEM. It is filed as physicochemical. Particulars: 5 µM; for Morphology: negative-stain TEM (NanoW), 120 kV, categories by L/D; for Cylinder length / Sphere diameter: negative-stain TEM.
Data set [2] concerns RAW 264.7 (macrophage-like cells - Mφs). The experiment in a line: Cell viability of LPS-treated Mφs by flow cytometry. In kind it is cell-based, murine. The settings on record: for cell viability relative to untreated cells: 10 µM. In general terms: A flow cytometer gives signals particle by particle.
For data set [3] the test system is unchanged. In words: Micelle surface attachment and internalization by Mφs, confocal microscopy. In kind it is cell-based, murine. Particulars: 5 µM, 1:19 FAM-PA:Non-FAM-PA, LPS 0.1 µg/mL.
Data set [4] can be described thus: Secondary structure by circular dichroism. It is filed as physicochemical. The settings on record: CD, 40 μM in PBS; for combined α-helix and random coil content: sum of α-helix and random coil; for organized secondary structure (α-helix and β-sheet): sum of α-helix and β-sheet. (CD spectra are sensitive to the conformation of chiral molecules.)
Data set [5] relates to secreted tumor necrosis factor-α (TNF-α) of LPS-activated RAW 264.7 Mφs. In words: TNF-α secretion of LPS-activated Mφs. In kind it is cell-based, murine. Particulars: 6 h, ELISA. On the technique in general: ELISA stands for enzyme-linked immunosorbent assay.
Data set [6] has as its system RAW 264.7 (macrophage-like cells - Mφs). The experiment in a line: Micelle association with Mφs by flow cytometry. In kind it is cell-based, murine. The settings on record: 5 µM, 1:19 FAM-PA:Non-FAM-PA.
[7] abbreviates: LPS-treated (0.1 µg/mL) Mφs, six hours, flow cytometry.

Regarding “VIP(^SVIP)-KEKEKEKE-CONH2 [PalmK-VIP-(KE)4]”, in data set [1], the Morphology entry is “Mostly Large/Long Cylinders” and the Cylinder length was 1000 - 9000 nm. Besides, in data set [2] (setting [7]), the “cell viability relative to untreated cells” value is reported as 70 - 80%. The “micelle location on/in Mφs” value in data set [3] (1 hour) is listed as “only found along the Mφ cell membrane”.

As for “VIP(^SVIP)-KEKEKKKK-CONH2 [Palm2K-VIP-(KE)2K4]”, in data set [1], the Morphology entry was “Mostly Spheres” and the Sphere diameter was 10 - 15 nm. Further, the “combined α-helix and random coil content” value in data set [4] turned out to be 46.5%.

As to “VIP(^SVIP)-KEKEKEKE-CONH2 [Palm2K-^SVIP-(KE)4]”, in data set [1], the Morphology entry is on record as “Spheres” and the Sphere diameter is on record as 10 - 15 nm. In addition, the “combined α-helix and random coil content” value in data set [4] was determined as 41.5%.

With “VIP(^SVIP)-KEKEKEKE-CONH2 [Palm2K-VIP-(KE)4]”, in data set [1], the Morphology entry is “Small/Medium Cylinders” and the Cylinder length was 100 - 700 nm. The “cell viability relative to untreated cells” value in data set [2] (setting [7]) was 70 - 80%. Besides, the “micelle location on/in Mφs” value in data set [3] (1 hour) is recorded as “only found along the Mφ cell membrane”. In addition, in data set [5] (5 µM and 10 µM), the “modulation of TNF-α secretion” value is listed as “significant TNF-α suppression”.

Take “Ac-NSDLIATDSYTRMRKQVLANKKFHYLVN-NH2 [^SVIP]”: in data set [1], the Morphology result was “Amorphous aggregates”. Besides, the “viability of treated cells” value in data set [2] (LPS-treated Mφs, 5 µM, 6 hours (Figure 3a)) is “remained high”. For the same substance, the “organized secondary structure (α-helix and β-sheet)” value in data set [4] came to 46.6%.

As for “VIP(^SVIP)-KEKEEEEE-CONH2 [Palm2K-^SVIP-(KE)2E4]”, in data set [1], the Morphology entry is reported as “Spheres + Short/Small Cylinders”, the Cylinder length was 50 - 250 nm and the Sphere diameter is on record as 10 - 20 nm.

Consider “VIP(^SVIP)-KEKEEEEE-CONH2 [Palm2K-VIP-(KE)2E4]”, for which, in data set [1], the Morphology entry was “Spheres + Short/Small Cylinders”, the Cylinder length was 20 - 300 nm and the Sphere diameter was 10 - 20 nm. Further, the “micelle location on/in Mφs” value in data set [3] (6 hours) is reported as “cell membranes coated”. The “MFI of micelle-associated Mφs” value in data set [6] (6 hours) is “greatest Mφ association”.

Turning to “VIP(^SVIP)-KEKEKEKE-CONH2 [PalmK-^SVIP-(KE)4]”, in data set [1], the Morphology entry is given as “Mostly Large/Long Cylinders” and the Cylinder length was 1000 - 9000 nm.

In the case of “VIP(^SVIP)-KEKEKKKK-CONH2 [Palm2K-^SVIP-(KE)2K4]”, in data set [1], the Morphology entry is “Small/Medium Cylinders” and the Cylinder length is reported as 100 - 400 nm. Also, the “percentage of Mφs associated with fluorophore-labeled micelles” value in data set [6] (1 hour) is given as “Mφs preferred to associate”.

For “Ac-HSDAVFTDNYTRLRKQMAVKKYLNSILN-CONH2 [VIP, reference compound]”, the Morphology entry in data set [1] is on record as “lacks any particle structure”. The cytotoxicity result in data set [2] (LPS-treated (0.1 µg/mL) Mφs, up to 5 µM, six hours, flow cytometry) was “Minimal cytotoxicity”. For the same substance, the “modulation of TNF-α secretion” value is reported as “No appreciable modulation” in data set [5] (1 µM and 2.5 µM); “significant TNF-α suppression” in data set [5] (5 µM and 10 µM). Besides, the “organized secondary structure (α-helix and β-sheet)” value in data set [4] stood at 49.4%.
